{
  "source": "ChEMBL document CHEMBL3886179",
  "about": "“Substituted 6, 7-dialkoxy-3-isoquinoline derivatives as inhibitors of phosphodiesterase 10 (PDE 10A)” (2015)",
  "note": "“And” between values parts separate entries of the source, which are not always exact repeats. Equal entries are not always repeated.",
  "data": [
    {"target": "cAMP and cAMP-inhibited cGMP 3',5'-cyclic phosphodiesterase 10A (Homo sapiens, UniProt Q9Y233)", "sequence (Q9Y233 whole entry)": "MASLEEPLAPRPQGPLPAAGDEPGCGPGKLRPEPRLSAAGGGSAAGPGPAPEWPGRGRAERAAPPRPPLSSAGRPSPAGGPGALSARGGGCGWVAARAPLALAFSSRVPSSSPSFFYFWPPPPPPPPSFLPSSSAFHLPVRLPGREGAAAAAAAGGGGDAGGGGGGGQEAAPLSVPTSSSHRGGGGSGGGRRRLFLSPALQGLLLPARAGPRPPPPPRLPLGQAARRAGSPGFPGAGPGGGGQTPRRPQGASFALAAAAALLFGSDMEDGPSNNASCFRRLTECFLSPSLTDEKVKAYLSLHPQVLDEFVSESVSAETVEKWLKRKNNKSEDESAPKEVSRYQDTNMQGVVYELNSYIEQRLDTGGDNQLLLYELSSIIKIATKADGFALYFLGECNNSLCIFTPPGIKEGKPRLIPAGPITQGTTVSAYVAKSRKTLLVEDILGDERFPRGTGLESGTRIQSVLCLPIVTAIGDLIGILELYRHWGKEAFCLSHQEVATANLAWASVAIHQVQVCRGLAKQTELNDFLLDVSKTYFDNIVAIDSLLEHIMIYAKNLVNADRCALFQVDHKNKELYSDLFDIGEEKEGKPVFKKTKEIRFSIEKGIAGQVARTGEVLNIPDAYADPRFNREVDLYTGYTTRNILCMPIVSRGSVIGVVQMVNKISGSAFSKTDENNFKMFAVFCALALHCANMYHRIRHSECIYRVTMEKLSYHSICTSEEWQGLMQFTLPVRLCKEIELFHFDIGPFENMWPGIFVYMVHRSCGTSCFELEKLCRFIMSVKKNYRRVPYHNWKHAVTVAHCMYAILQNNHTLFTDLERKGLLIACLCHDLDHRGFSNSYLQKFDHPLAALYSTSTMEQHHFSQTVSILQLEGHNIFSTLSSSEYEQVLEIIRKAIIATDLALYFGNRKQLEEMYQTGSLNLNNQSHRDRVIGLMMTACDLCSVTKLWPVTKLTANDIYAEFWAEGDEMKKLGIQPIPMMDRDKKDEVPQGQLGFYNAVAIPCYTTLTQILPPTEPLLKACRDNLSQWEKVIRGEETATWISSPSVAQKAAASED", "assay": "Diaxonhit Phosphodiesterase Assay: The phosphodiesterase assay was developed using the LANCE cAMP kit (PerkinElmer). The assay buffer contained HBSS with 5 mM HEPES, 0.1% BSA, and 1.5 mM MgCl2, pH 7.4. PDE10A (BPS Bioscience) was used at 200 pg/well (with a specific activity of 3200 pmole/min/ug with assay conditions: 10 mM Tris-HCl, pH 7.4, 10 mM MgCl2, 1 mM MnCl2, 200 uM cAMP, 2.5 kU 5' nucleotidase, 37° C., 20 min) and PDE4D3 (BPS Bioscience) was used at 100 pg/well (with a specific activity of 32713 pmole/min/ug with assay conditions: 10 mM Tris-HCl, pH 7.4, 10 mM MgCl2, 1 mM MnCl2, 200 uM cAMP, 2.5 kU 5' nucleotidase, 37° C., 20 min). The Biotin-cAMP tracer, supplied in 10 mmol/L Tris-HCl buffered (pH 8.0) salt solution with 1 mmol/L ethylenediaminetetraacetic acid (EDTA), 0.1% bovine serum albumin (BSA), and 0.05% sodium azide, is used at a dilution of 1/375. The assay detection mixture contained the LANCE Eu-W8044 labeled streptavidin 1/2250 (supplied in 50 mmol/L Tris-HCl buffer).", "values": [
      {"smiles": "COc1cc2c(Cc3cnc4ccccc4c3)cnc(C3CC3)c2cc1OC", "IC50": "42 nM"},
      {"smiles": "CCOc1cccc2ccc(Cc3cncc4cc(OC)c(OC)cc34)nc12", "IC50": "49 nM"},
      {"smiles": "CCCc1ncc(Cc2ccc3cccc(OCC(N)=O)c3n2)c2cc(OC)c(OC)cc12", "IC50": "1.4 nM and 5.3 nM"},
      {"smiles": "COc1cc2c[n+]([O-])cc(Cc3ccc4oc5ccccc5c4c3)c2cc1OC", "IC50": "31 nM"},
      {"smiles": "CCOc1cc2c(Cc3ccc4oc5ccccc5c4c3)cncc2cc1OC", "IC50": "287 nM"},
      {"smiles": "COc1cc2c(Cc3ccc4ccccc4c3)cnc(C)c2cc1OC", "IC50": "194 nM"},
      {"smiles": "CCCc1ncc(Cc2ccc3cccc(OCCO)c3n2)c2cc(OC)c(OC)cc12", "IC50": "6.6 nM"},
      {"smiles": "CCc1ncc(Cc2ccc3cccc(C#N)c3n2)c2cc(OC)c(OC)cc12", "IC50": "46 nM"},
      {"smiles": "COc1cc2cncc(Cc3ccc4cccc(O)c4n3)c2cc1OC", "IC50": "23 nM"},
      {"smiles": "CCc1ncc(Cc2ccc3oc4ccccc4c3c2)c2cc(OC)c(OC)cc12", "IC50": "339 nM"},
      {"smiles": "CCc1ncc(Cc2cnc3ccccc3c2)c2cc(OC)c(OC)cc12", "IC50": "19 nM"},
      {"smiles": "CCCc1ncc(Cc2cc3cc(OC)ccc3nc2NCC)c2cc(OC)c(OC)cc12", "IC50": "9.7 nM"},
      {"smiles": "CCc1ncc(Cc2cnc3ccc(NS(N)(=O)=O)cc3c2)c2cc(OC)c(OC)cc12", "IC50": "4.6 nM"},
      {"smiles": "COc1cc2c(Cc3ccc4oc5ccccc5c4c3)cnc(C)c2cc1OC", "IC50": "184 nM"},
      {"smiles": "CCCc1ncc(Cc2cc3ccccc3cn2)c2cc(OC)c(OC)cc12", "IC50": "159 nM"},
      {"smiles": "CCOc1cc2c(Cc3cnc4ccccc4c3)cncc2cc1OC", "IC50": "92 nM"},
      {"smiles": "COc1cc2cncc(Cc3cnc4ccccc4c3)c2cc1OC", "IC50": "13 nM"},
      {"smiles": "CCOC(=O)COc1cccc2ccc(Cc3cncc4cc(OC)c(OC)cc34)nc12", "IC50": "51 nM"},
      {"smiles": "CCCc1ncc(Cc2cnc3ccccc3c2)c2cc(OC)c(OC)cc12", "IC50": "11 nM"},
      {"smiles": "COc1cc2cncc(Cc3ccc4c(c3)CCC(C)(C)O4)c2cc1OC", "IC50": "81 nM"},
      {"smiles": "CCc1ncc(Cc2cc3ccccc3cn2)c2cc(OC)c(OC)cc12", "IC50": "32 nM"},
      {"smiles": "COc1cc2c(Cc3ccc4nc(C)ccc4c3)cnc(-c3ccccc3)c2cc1OC", "IC50": "148 nM"},
      {"smiles": "CCc1ncc(Cc2ccc3cccc(NC(N)=O)c3n2)c2cc(OC)c(OC)cc12", "IC50": "58 nM"},
      {"smiles": "COc1cc2cncc(Cc3ccc4ccccc4c3)c2cc1OC", "IC50": "105 nM"},
      {"smiles": "c1ccc2c(c1)oc1ccc(Cc3cncc4cc5c(cc34)OCCO5)cc12", "IC50": "7560 nM"},
      {"smiles": "COc1cc2cncc(Cc3ccc4c(c3)Cc3ccccc3-4)c2cc1OC", "IC50": "110 nM"},
      {"smiles": "CCCc1ncc(Cc2cnc3cc(C)ccc3c2)c2cc(OC)c(OC)cc12", "IC50": "5.2 nM"},
      {"smiles": "COc1cc2cncc(Cc3cnc4cc(C)ccc4c3)c2cc1OC", "IC50": "1.2 nM"},
      {"smiles": "CCc1ncc(Cc2cnc3ccc(N)cc3c2)c2cc(OC)c(OC)cc12", "IC50": "13 nM"},
      {"smiles": "COc1cc2cncc(Cc3coc4ccc(Cl)cc4c3=O)c2cc1OC", "IC50": "20 nM"},
      {"smiles": "c1ccc2c(c1)oc1ccc(Cc3cncc4cc5c(cc34)OCO5)cc12", "IC50": "3170 nM"},
      {"smiles": "COc1cc2cncc(Cc3ccc4cccc(OCC(N)=O)c4n3)c2cc1OC", "IC50": "21 nM"},
      {"smiles": "CCc1ncc(Cc2cc3cc(OC)ccc3nc2O)c2cc(OC)c(OC)cc12", "IC50": "44 nM"},
      {"smiles": "COc1cc2cncc(Cc3coc4ccc(F)cc4c3=O)c2cc1OC", "IC50": "38 nM"},
      {"smiles": "COc1ccc2cc(Cc3cncc4cc(OC)c(OC)cc34)ccc2c1", "IC50": "54 nM"},
      {"smiles": "CCc1ncc(Cc2ccc3cccc(C(N)=O)c3n2)c2cc(OC)c(OC)cc12", "IC50": "77 nM"},
      {"smiles": "COc1cc2c(Cc3ccc4nc(C)ccc4c3)cnc(C3CCCCC3)c2cc1OC", "IC50": "368 nM"},
      {"smiles": "CCCOc1cccc2ccc(Cc3cncc4cc(OC)c(OC)cc34)nc12", "IC50": "315 nM"},
      {"smiles": "COc1cc2cncc(Cc3cc4ccccc4cn3)c2cc1OC", "IC50": "30 nM"},
      {"smiles": "COc1cc2cncc(Cc3ccc4nc(C)ccc4c3)c2cc1OC", "IC50": "6.5 nM"},
      {"smiles": "CCOc1c(Cc2cncc3cc(OC)c(OC)cc23)cnc2c1cnn2CC", "IC50": "3560 nM"},
      {"smiles": "COc1cc2cncc(Cc3ccc4[nH]cnc4c3)c2cc1OC", "IC50": "74 nM"},
      {"smiles": "CCCc1ncc(Cc2ccc3oc4ccccc4c3c2)c2cc(OC)c(OC)cc12", "IC50": "278 nM"},
      {"smiles": "COc1cc2cncc(Cc3coc4ccc(C)cc4c3=O)c2cc1OC", "IC50": "5.1 nM"},
      {"smiles": "COc1cc2cncc(Cc3ccc4oc5ccccc5c4c3)c2cc1OC", "IC50": "7.6 nM"},
      {"smiles": "COc1cc2cncc(Cc3cc4ccccc4nc3N(C)C)c2cc1OC", "IC50": "142 nM"},
      {"smiles": "COc1ccc2nc(O)c(Cc3cncc4cc(OC)c(OC)cc34)cc2c1", "IC50": "25 nM"},
      {"smiles": "CCc1ncc(Cc2ccc3nc(C)ccc3c2)c2cc(OC)c(OC)cc12", "IC50": "28 nM"},
      {"smiles": "CCCc1ncc(Cc2ccc3cccc(NS(N)(=O)=O)c3n2)c2cc(OC)c(OC)cc12", "IC50": "0.82 nM"},
      {"smiles": "CCc1ncc(Cc2cnc3ccc(NS(C)(=O)=O)cc3c2)c2cc(OC)c(OC)cc12", "IC50": "16 nM"},
      {"smiles": "COc1cc2cncc(Cc3ccc4ccccc4n3)c2cc1OC", "IC50": "208 nM"},
      {"smiles": "COc1cc2cnc(C)c(Cc3ccc4ccccc4c3)c2cc1OC", "IC50": "1070 nM"},
      {"smiles": "CCc1ncc(Cc2ccc3cccc(NS(C)(=O)=O)c3n2)c2cc(OC)c(OC)cc12", "IC50": "8.3 nM"},
      {"smiles": "CCCc1ncc(Cc2ccc3cccc(O)c3n2)c2cc(OC)c(OC)cc12", "IC50": "20 nM"},
      {"smiles": "CCOc1cc2cncc(Cc3cnc4ccccc4c3)c2cc1OCC", "IC50": "168 nM"},
      {"smiles": "CCCCc1ncc(Cc2cnc3cc(C)ccc3c2)c2cc(OC)c(OC)cc12", "IC50": "946 nM"},
      {"smiles": "COc1cc2c(Cc3ccc4nc(C)ccc4c3)cnc(CC(C)C)c2cc1OC", "IC50": "31 nM"},
      {"smiles": "COc1cc2cncc(Cc3ccc4c(c3)oc(=O)n4C)c2cc1OC", "IC50": "3.6 nM"},
      {"smiles": "CCCc1ncc(Cc2cc3ccccc3nc2O)c2cc(OC)c(OC)cc12", "IC50": "36 nM"},
      {"smiles": "COc1cc2cncc(Cc3cc4ccccc4nc3Cl)c2cc1OC", "IC50": "95 nM"},
      {"smiles": "CCCc1ncc(Cc2cc3cc(OC)ccc3nc2OCCNC(C)=O)c2cc(OC)c(OC)cc12", "IC50": "65 nM"},
      {"smiles": "CCc1ncc(Cc2cnc3ccc(N4CCCC4=O)cc3c2)c2cc(OC)c(OC)cc12", "IC50": "15 nM"},
      {"smiles": "CCc1ncc(Cc2ccc3cccc(NC(C)=O)c3n2)c2cc(OC)c(OC)cc12", "IC50": "17 nM"},
      {"smiles": "CCCCc1ncc(Cc2ccc3nc(C)ccc3c2)c2cc(OC)c(OC)cc12", "IC50": "154 nM"},
      {"smiles": "CCc1ncc(Cc2cnc3ccc(O)cc3c2)c2cc(OC)c(OC)cc12", "IC50": "28 nM"},
      {"smiles": "CCCc1ncc(Cc2ccc3c(c2)oc(=O)n3C)c2cc(OC)c(OC)cc12", "IC50": "4.4 nM"},
      {"smiles": "CCn1ncc2c(Cl)c(Cc3cncc4cc(OC)c(OC)cc34)cnc21", "IC50": "330 nM"},
      {"smiles": "CCCCc1ncc(Cc2cnc3ccccc3c2)c2cc(OC)c(OC)cc12", "IC50": "92 nM"},
      {"smiles": "COc1cc2cncc(Cc3ccc4cccc(OCc5cccnc5)c4n3)c2cc1OC", "IC50": "90 nM"},
      {"smiles": "COc1cc2cncc(Cc3ccc4ncccc4c3)c2cc1OC", "IC50": "54 nM"},
      {"smiles": "COc1cc2c(Cc3ccc4nc(C)ccc4c3)cnc(C3CC3)c2cc1OC", "IC50": "25 nM"},
      {"smiles": "CCCc1ncc(Cc2cc3cc(OCC)ccc3nc2O)c2cc(OC)c(OC)cc12", "IC50": "99 nM"},
      {"smiles": "CCc1ncc(Cc2ccc3cccc(NC(=O)C(N)=O)c3n2)c2cc(OC)c(OC)cc12", "IC50": "17 nM"},
      {"smiles": "CCc1ncc(Cc2ccc3cccc(NS(N)(=O)=O)c3n2)c2cc(OC)c(OC)cc12", "IC50": "0.53 nM"},
      {"smiles": "COc1ccc2cc(Cc3cncc4cc(OC)c(OC)cc34)cnc2c1", "IC50": "18 nM"},
      {"smiles": "COc1cc2cncc(Cc3ccc4cccc(OCc5ccncc5)c4n3)c2cc1OC", "IC50": "213 nM"},
      {"smiles": "COc1cc2cncc(Cc3ccc4c(c3)CCN4C)c2cc1OC", "IC50": "132 nM"},
      {"smiles": "CCc1ncc(Cc2ccc3cccc(NS(=O)(=O)CC)c3n2)c2cc(OC)c(OC)cc12", "IC50": "3.5 nM"},
      {"smiles": "COc1cc2cncc(Cc3ccc4c(c3)OCCN4C)c2cc1OC", "IC50": "70 nM"},
      {"smiles": "CCn1ncc2c(O)c(Cc3cncc4cc(OC)c(OC)cc34)cnc21", "IC50": "238 nM"},
      {"smiles": "COc1cc2cncc(Cc3coc4ccccc4c3=O)c2cc1OC", "IC50": "41 nM"}
    ]}
  ]
}
